{
  "source": "paper PMC9555310",
  "about": "“Novel inhibitors and activity-based probes targeting serine proteases” (Frontiers in Chemistry, 2022)",
  "key": {"NE in CF Sol samples": {"target": "T1, NE in CF Sol samples (Homo sapiens, UniProt P08246)", "T1 construct": "from tissue; host or cells: Cystic Fibrosis (CF) Sol samples 26w and 41w from patients", "T1 sequence (P08246 30-267)": "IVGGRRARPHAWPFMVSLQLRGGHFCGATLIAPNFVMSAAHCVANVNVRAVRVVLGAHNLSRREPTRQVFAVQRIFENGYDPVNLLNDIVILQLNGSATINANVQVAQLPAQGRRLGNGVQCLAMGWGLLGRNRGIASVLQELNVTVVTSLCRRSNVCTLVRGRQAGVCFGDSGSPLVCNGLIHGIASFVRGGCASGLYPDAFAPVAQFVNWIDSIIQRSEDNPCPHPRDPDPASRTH", "assay": "Fluorogenic substrate assay of elastase-like activity in CF Sol", "type": "biochemical", "conditions": "50 μM; CF Sol sample 26w at 2.5% (v/v); PBS pH 7.4, 37°C; 60 min", "protocol": "FIGURE 7 Activity Based Profiling of serine proteases by peptide N-Alkyl glycine carbamates. (A,B) record the results for the incubation of NE with NAP800 and chymotrypsin with NAP849. NE and Chymotrypsin were treated (±) with NAP800 and NAP849, respectively (± pre-heat inactivation at 95°C, for 10 min), for 30 min, at 37°C. (C) Determination of NE levels in CF samples using fluorogenic substrate assay. NE assays were carried out in PBS, pH 7.4, at 37°C. CF Sol (sample 26w) was used at a final concentration of 2.5% (v/v), and the level of NE contained therein was measured using Succinyl-Ala-Ala-Pro-Val-NHMec (50 μM), in the absence (-- o --) and presence (-- o --) of NAP800 (50 μM). (D) Activity based profiling of CF Sol using NAP800. CF Sol samples 26w and 41w were treated (+) with 50 μM NAP800 (+ pre-heat inactivation at 95°C, for 10 min), for 30 min, at 37°C.\nInitially, as a quick screen, a fluorogenic enzyme assay was performed on CF Sol samples, using the elastase fluorogenic substrate MeO-Succinyl-Ala-Ala-Pro-Val-NHMec, the results of one such experiment (performed on sample 26w) is recorded in Figure 7C."}, "neutrophil elastase (NE)": {"target": "T2, neutrophil elastase (NE) (Homo sapiens, UniProt P08246)", "T2 construct": "purchased Calbiochem", "T2 sequence (P08246 30-267)": "T1 sequence (P08246 30-267)", "assay": "Irreversible inhibition kinetics of neutrophil elastase (fluorogenic substrate progress curves)", "type": "biochemical", "protocol": "A range of inhibitor concentrations were prepared from a 10 mM stock solution of the test compounds (NAP533, NAP559, NAP800, NAP830, NAP849, and NAP962) in N, N-dimethylformamide (DMF). Recombinant protease activities were assayed using the cognate fluorogenic substrates as follows: trypsin (Z-Gly-Gly-Arg-NHMec), thrombin (Boc-Val-Pro-Arg-NHMec), plasmin (Boc-Val-Leu-Lys-NHMec), human neutrophil elastase (MeO-Succinyl-Ala-Ala-Pro-Val-NHMec), and chymotrypsin (Succinyl-Ala-Ala-Pro-Phe-NHMec). Each substrate was used at a final concentration of 50 μM, in the appropriate buffer for each protease. All inhibition assays were performed in microtiter plates maintained at 37°C in a final volume of 100 μL. The reaction was initiated by the addition of each protease (approx. 0.01 μg/well) and the rate of substrate hydrolysis was recorded continuously at 37°C, over a 60 min period, by measuring the rate of increase in fluorescence (at λex 360 nm, λem 480 nm) using a FLUOstar Optima microplate reader (BMG Labtech).\nThe resultant inhibition progress curves obtained for each inhibitor were analyzed by the kinetic models developed by [Tian and Tsou (1982)] and [Walker and Elmore (1984)], for irreversible inhibitors, with curve fitting being achieved using GraFit (Erithacus Software), as described previously ([Ferguson et al., 2016]).\nFIGURE 4 Progress curves for (A), chymotrypsin-catalysed hydrolysis of Succinyl-Ala-Ala-Pro-Phe-NHMec, in the presence of varying concentrations of NAP849. (B), NE-catalysed hydrolysis of MeO-succinyl-Ala-Ala-Pro-Val-NHMec, in the presence of varying concentrations of NAP800. (C) Trypsin-catalysed of Z-Gly-Gly-Arg-NHMec, in the presence of NAP830. (D) Plasmin-catalysed hydrolysis of Boc-Val-Leu-Lys-NHMec, in the presence of varying concentrations of NAP962. Assays were carried out in PBS, pH 7.4, at 37°C, in the presence of a range of inhibitor concentrations (0.25–50 μM) and a fixed concentration (50 μM) of the appropriate substrate for each protease.\nThe “product progress” curves for substrate hydrolysis in the presence of an inhibitor (Figure 4) are indicative of the action of irreversible inhibitors operating through the kinetic scheme illustrated in Figure 6. In this scheme, the formation of the reversible enzyme–inhibitor complex (EI) is zcharacterized by the inhibitor constant K i. This is converted into the covalent/irreversible complex (E-I) characterized by a first-order rate constant k 3. The overall second-order rate constant for the inactivation of E by I is given by the ratio k 3/K i ([Walker and Elmore, 1984]; [Tsou, 1988]). […]\nProtease inactivation by each of the compounds under study was evaluated using a fluorogenic enzyme assays. […]"}},
  "note": "“And” between values parts separate entries of the source, which are not always exact repeats. Identical values can stand only once.",
  "data": [
    {"molecule": "CC(C)N(CC(=O)NCC(=O)NCC(=O)NCCCOCCOCCOCCCNC(=O)CCCCC1SCC2NC(=O)NC21)C(=O)ON1C(=O)CCC1=O", "note": "(stereo not drawn) [NAP800, Succinimidoyl-CO-NVal-Gly-Gly-PEG-Biotin]", "values": [
      {"measurement": "blockade of MeO-Succinyl-Ala-Ala-Pro-Val-NHMec cleavage in CF Sol", "setting": "NE in CF Sol samples", "value": "progressive and ultimately complete blockade of substrate cleavage"},
      {"measurement": "Ki", "setting": "neutrophil elastase (NE); MeO-Succinyl-Ala-Ala-Pro-Val-NHMec 50 μM, PBS pH 7.4, 37°C, mean ± SD (n=2)", "value": 6, "unit": "µM"},
      {"measurement": "k 3", "setting": "neutrophil elastase (NE); first-order rate constant, PBS pH 7.4, 37°C, mean ± SD (n=2)", "value": "0.38(± 0.06) min^−1"},
      {"measurement": "second-order rate constant (k 3/K i) relative to the analogous valine diphenyl phosphonate QUBEL1", "setting": "neutrophil elastase (NE); fold greater than QUBEL1", "value": "approximately five-fold"},
      {"measurement": "k 3 / K i", "setting": "neutrophil elastase (NE); second-order rate constant of inactivation, PBS pH 7.4, 37°C, mean ± SD (n=2)", "value": "6.41 × 10^4 M^−1 min^−1 and 6.4 (± 0.57) × 10^4 M^−1 min^−1"}
    ]}
  ]
}
